The values below come from patent US5686486A, “4-hydroxy-benzopyran-2-ones and 4-hydroxy-cycloalkyl[b]pyran-2-ones useful to treat retroviral infections” (priority 1995, dated 1997).

Assay [1] addresses T1, HIV-1 protease (Human immunodeficiency virus type 1 group M subtype B, UniProt P04585). Nature of the assay: biochemical. The method in brief:
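Enzyme (40 nM stock) and substrate (200 μM stock) incubated with inhibitor, 24–48 two-fold serial concentrations, for 90 min at room temperature, then quenched with avidin beads. Nonlinear least-squares analysis gives Ki; a known-Ki inhibitor validates each run.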

In assay [2] the target is T1, HIV-1 protease. Kind of assay: biochemical. The following applies: for inhibition at 0.37 µM: read-out: HIV-1 Protease % Inhib, dose 0.370 uM; for inhibition at 1.1 µM: read-out: HIV-1 Protease % Inhib, dose 1.100 uM; for inhibition at 3.3 µM: read-out: HIV-1 Protease % Inhib, dose 3.300 uM; for inhibition at 10 µM: read-out: HIV-1 Protease % Inhib, dose 10.000 uM; for inhibition at 30 µM: read-out: HIV-1 Protease % Inhib, dose 30.000 uM; for inhibition at 0.123 µM: read-out: HIV-1 Protease % Inhib, dose 0.123 uM; for inhibition at 0.41 µM: read-out: HIV-1 Protease % Inhib, dose 0.410 uM; for inhibition at 1.23 µM: read-out: HIV-1 Protease % Inhib, dose 1.230 uM; for inhibition at 3.7 µM: read-out: HIV-1 Protease % Inhib, dose 3.700 uM; for inhibition at 11 µM: read-out: HIV-1 Protease % Inhib, dose 11.000 uM; for inhibition at 33 µM: read-out: HIV-1 Protease % Inhib, dose 33.000 uM; for inhibition at 100 µM: read-out: HIV-1 Protease % Inhib, dose 100.000 uM. In short, it runs like this:
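Percent inhibition derived from fluorescent cleavage product separated by filtration after streptavidin-bead capture of intact biotin/FITC substrate. Reaction: enzyme (10 μl, 0.1 μM stock) with substrate (20 μl, 0.2 μM stock) and compound, 1 h at room temperature in dark, pH 5.5 acetate buffer with 1.0 M NaCl and 0.05% NP-40.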

The structures appear in SMILES notation. “And” between values parts separate entries of the source, which are not always exact repeats. Identical values can stand only once. Like-named read-outs stand apart in the source and are kept apart here.

In the case of `CC(C)(C)OC(=O)NCC(=O)Nc1cccc(C(c2c(O)c3c(oc2=O)CCCCCC3)C2CC2)c1` (single isomer, unassigned) [Example 238, Carbamic acid, [2-[[3-(R or S)-[cyclopropyl(5,6,7,8,9,10-hexahydro-4-hydroxy-2-oxo-2H-cycloocta[b]pyran-3-yl)methyl]phenyl]amino]-2-oxoethyl]-, 1,1-dimethyl ethyl ester], the Ki at HIV-1 protease [1] (read-out: HIV-1 FITC KI) was determined as 13.4 nM. On HIV-1 protease [2] (dose 0.123 uM), the “HIV-1 Protease % Inhib” value worked out at 30.5%. Further, on HIV-1 protease [2], the inhibition at 0.37 µM came to 76.4%, the inhibition at 1.1 µM worked out at 96.3%, the inhibition at 3.3 µM stood at 99.9% and the inhibition at 10 µM worked out at 116%. Moreover, at HIV-1 protease [2], the inhibition at 30 µM turned out to be 115%.
Regarding `CN(C)S(=O)(=O)Nc1cccc(C(c2c(O)c3c(oc2=O)CCCCCC3)C2CC2)c1` (stereo not shown) [Example 398, N'-[3-[cyclopropyl(5,6,7,8,9,10-hexahydro4-hydroxy-2-oxo-2H-cycloocta[b]pyran-3-yl)methyl]phenyl]-N,N-dimethyl-sulfamide], the Ki on HIV-1 protease [1] (read-out: HIV-1 FITC KI) was 41.5 nM. Besides, on HIV-1 protease [2], the inhibition at 0.123 µM turned out to be 10.5%, the inhibition at 0.37 µM came to 40.9%, the inhibition at 1.1 µM is 74.2% and the inhibition at 3.3 µM amounted to 91.5%. Besides, at HIV-1 protease [2], the inhibition at 10 µM was found to be 105% and the inhibition at 30 µM was determined as 105%.
On to `CCC(c1ccccc1)c1c(O)c2c(oc1=O)C(CC1CC1)CCC2` (stereo not shown) [Example 124, 8-Cyclopropylmethyl-4-hydroxy-3-(1-phenyl-propyl)-5,6,7,8-tetrahydro-chromen-2-one], for which the Ki at HIV-1 protease [1] (read-out: HIV-1 FITC KI) came out at 1040 nM. Besides, at HIV-1 protease [2], the inhibition at 0.41 µM was < 10%, the inhibition at 1.23 µM is 32.4%, the inhibition at 3.7 µM came out at 65.6% and the inhibition at 11 µM is 81.6%. For the same compound, at HIV-1 protease [2], the inhibition at 33 µM was determined as 88.2% and the inhibition at 100 µM was found to be 89.4%.
As for `O=c1oc2c(c(O)c1C(c1ccccc1)C1CC1)CCCCCC2CC1CCCO1` (single isomer, unassigned) [Example 170, 3-(Cyclopropylphenylmethyl)-5,6,7,8,9,10-hexahydro-4-hydroxy-10-[(tetrahydro-2-furanyl)methyl]-2H-cycloocta[b]pyran-2-one], the Ki on HIV-1 protease [1] (read-out: HIV-1 FITC KI) was determined as 31 nM. At HIV-1 protease [2], the inhibition at 0.123 µM worked out at 23.2%, the inhibition at 0.37 µM is 62.3%, the inhibition at 1.1 µM worked out at 92.5% and the inhibition at 3.3 µM amounted to 99.3%. Also, on HIV-1 protease [2], the inhibition at 10 µM was found to be 107% and the inhibition at 30 µM amounted to 111%.
For the compound `CC(C)CC1CCCCc2c1oc(=O)c(C(c1ccccc1)C1CC1)c2O` (stereo not shown) [Example 183, 3-(Cyclopropylphenylmethyl)-6,7,8,9-tetrahydro4-hydroxy-9-(2-methylpropyl)-cyclohepta[b]pyran-2(5H)-one], the Ki at HIV-1 protease [1] (read-out: HIV-1 FITC KI) stood at 13 nM. Moreover, on HIV-1 protease [2], the inhibition at 0.123 µM amounted to 20.9%, the inhibition at 0.37 µM came out at 56.5%, the inhibition at 1.1 µM turned out to be 85.5% and the inhibition at 3.3 µM came to 97.3%. At HIV-1 protease [2], the inhibition at 10 µM came out at 95.8% and the inhibition at 30 µM came to 89.7%.
Take `CC(=O)Nc1ccc(S(=O)(=O)Nc2cccc(C(c3c(O)c4c(oc3=O)CCCCCC4)C3CC3)c2)cc1` (stereo not shown) [Example 307, N-[4-[[[3-[Cyclopropyl(5,6,7,8,9,10-hexahydro-4-hydroxy-2-oxo-2H-cycloocta[b]pyran-3-yl)methyl]phenyl]amino]sulfonyl]phenyl]-acetamide]: the Ki on HIV-1 protease [1] (read-out: HIV-1 FITC KI) was 7.6 nM. In addition, at HIV-1 protease [2], the inhibition at 0.123 µM was 19.5%, the inhibition at 0.37 µM amounted to 66.5%, the inhibition at 1.1 µM is 85.2% and the inhibition at 3.3 µM was determined as 97.8%. Further, on HIV-1 protease [2], the inhibition at 10 µM turned out to be 105% and the inhibition at 30 µM amounted to 90.3%.
Regarding `CCC(c1ccccc1)c1c(O)c2c(oc1=O)CCC2` (stereo not shown) [Example 111, 6,7-Dihydro-4-hydroxy-3-(1-phenylpropyl)-cyclopenta[b]pyran-2(5H)-one], the Ki on HIV-1 protease [1] (read-out: HIV-1 FITC KI) was found to be 700 nM. Besides, at HIV-1 protease [2] (read-out: HIV-1 Protease % Inhib, dose 1.000 uM), the inhibition at 1 µM is 36.5%. For the same compound, at HIV-1 protease [2], the inhibition at 10 µM was 94.3% and the inhibition at 100 µM was found to be 101%.
On to `O=c1oc2c(c(O)c1C(c1ccccc1)C1CC1)CCCCCCC2` (stereo not shown) [Example 117, 3-(Cyclopropylphenylmethyl)-6,7,8,9,10,11-hexahydro-4-hydroxy-cyclonona[b]pyran-2(5H)-one], for which the Ki on HIV-1 protease [1] (read-out: HIV-1 FITC KI) came to 37 nM. For the same compound, at HIV-1 protease [2], the inhibition at 0.41 µM came to 80.1%, the inhibition at 1.23 µM came to 94%, the inhibition at 3.7 µM was determined as 101% and the inhibition at 11 µM is 114%. At HIV-1 protease [2], the inhibition at 33 µM was 107% and the inhibition at 100 µM came to 100%.
On to `CC(C)(C)c1ccc(S(=O)(=O)Nc2cccc(C(c3c(O)c4c(oc3=O)CCCCCC4)C3CC3)c2)cc1` (stereo not shown) [Example 265, N-[3-[Cyclopropyl(5,6,7,8,9,10-hexahydro-4hydroxy-2-oxo-2H-cycloocta[b]pyran-3-yl)methyl]phenyl]-4-(1,1-dimethylethyl)-benzenesulfonamide], for which the Ki on HIV-1 protease [1] (read-out: HIV-1 FITC KI) was 31.5 nM. Also, on HIV-1 protease [2], the inhibition at 0.123 µM stood at 25.3%, the inhibition at 0.37 µM was found to be 54.8%, the inhibition at 1.1 µM was 76.9% and the inhibition at 3.3 µM was 86.1%. Also, on HIV-1 protease [2], the inhibition at 10 µM came out at 100% and the inhibition at 30 µM is 98.3%.
`O=c1oc2c(c(O)c1C(c1cccc(NS(=O)(=O)c3ccc(N=Nc4ccccc4)cc3)c1)C1CC1)CCCCCC2` (stereo not shown) [Example 308, N-[3-[Cyclopropyl(5,6,7,8,9,10-hexahydro-4-hydroxy-2-oxo-2H-cycloocta[b]pyran-3-yl)methyl]phenyl]4-(phenylazo)-benzenesulfonamide]: the Ki at HIV-1 protease [1] (read-out: HIV-1 FITC KI) worked out at 3.1 nM. For the same compound, at HIV-1 protease [2], the inhibition at 0.123 µM came out at 46.5%, the inhibition at 0.37 µM is 70.4%, the inhibition at 1.1 µM was 82.3% and the inhibition at 3.3 µM is 91.3%. Besides, on HIV-1 protease [2], the inhibition at 10 µM came to 96.9% and the inhibition at 30 µM was 86.8%.
The compound `CCC(c1cccc(NS(=O)(=O)CCNC(=O)OC(C)(C)C)c1)c1c(O)c2ccccc2oc1=O` (stereo not shown) [Example 140, 2-(N-t-butyloxycarbonyl-amino)-ethanesulfonic acid (3-(1-(4-hydroxy-2-oxo-2H-chromen-3-yl)-propyl)-phenyl)-amide] had a Ki on HIV-1 protease [1] (HIV-1 FITC KI) of 762 nM. Besides, at HIV-1 protease [2], the inhibition at 0.41 µM is < 10%, the inhibition at 1.23 µM came to 16.5%, the inhibition at 3.7 µM stood at 48.1% and the inhibition at 11 µM turned out to be 71.8%. Further, at HIV-1 protease [2], the inhibition at 33 µM was found to be 91.1% and the inhibition at 100 µM stood at 109%.
Take `O=c1oc2c(c(O)c1C(c1cccc(NS(=O)(=O)c3cccc(S(=O)(=O)N(Cc4ccccc4)Cc4ccccc4)c3)c1)C1CC1)CCCCCC2` (stereo not shown) [Example 413, N-[3-[Cyclopropyl(5,6,7,8,9,10-hexahydro-4-hydroxy-2-oxo-2H-cycloocta[b]pyran-3-yl)-methyl]phenyl]-(3-N,N-dibenzylbenzenesulfonyl)benzenesulfonamide]: on HIV-1 protease [1] (read-out: HIV-1 FITC KI), the Ki turned out to be 104 nM. Moreover, at HIV-1 protease [2], the inhibition at 0.37 µM stood at 17.4%, the inhibition at 1.1 µM turned out to be 43.1%, the inhibition at 3.3 µM was 77.7% and the inhibition at 10 µM came out at 95.2%. Also, the inhibition at 30 µM on HIV-1 protease [2] is 92.7%.
As to `O=c1oc2c(c(O)c1[C@H](c1ccccc1)C1CC1)CCCCCC2` [Example 229, (-)-(S)-3-(Cyclopropylphenylmethyl)-5,6,7,8,9,10-hexahydro-4-hydroxy-2H-cyclo[b]pyran-2-one], the Ki on HIV-1 protease [1] (read-out: HIV-1 FITC KI) is 10.6 nM and 11.9 nM and 16.2 nM. For the same compound, on HIV-1 protease [2], the inhibition at 0.123 µM turned out to be 16.9%, the inhibition at 0.37 µM came out at 54.3%, the inhibition at 1.1 µM came out at 88.8% and the inhibition at 3.3 µM stood at 103%. Moreover, at HIV-1 protease [2], the inhibition at 10 µM is 108% and the inhibition at 30 µM came to 105%.
In the case of `O=c1oc2c(c(O)c1C(c1ccccc1)C1CC1)CCCCCC2C(O)C1CC1` (stereo not shown) [Example 176, 10-(Cyclopropylhydroxymethyl)-3-(cyclopropylphenylmethyl)-5,6,7,8,9, 10-hexahydro-4-hydroxy-2H-cycloocta[b]pyran-2-one], the Ki on HIV-1 protease [1] (read-out: HIV-1 FITC KI) worked out at 37 nM. Moreover, at HIV-1 protease [2], the inhibition at 0.37 µM was found to be 27.3%, the inhibition at 1.1 µM turned out to be 82.6%, the inhibition at 3.3 µM was 104% and the inhibition at 10 µM came out at 109%. Also, the inhibition at 30 µM on HIV-1 protease [2] is 118%.
In the case of `CC(C)C(c1cccc(NS(=O)(=O)c2ccc(Cl)cc2)c1)c1c(O)c2c(oc1=O)CCCCCC2` (stereo not shown) [Example 373, 4-Chloro-N-[3-[1-(6,7,8,9,10-hexahydro-4-hydroxy-2-oxo-2H-cycloocta[b]pyran-3-yl)-2-methylpropyl]phenyl]-benzenesulfonamide], the Ki at HIV-1 protease [1] (read-out: HIV-1 FITC KI) was found to be 18.3 nM. For the same compound, on HIV-1 protease [2], the inhibition at 0.123 µM came to 31.8%, the inhibition at 0.37 µM was 68.9%, the inhibition at 1.1 µM was found to be 87% and the inhibition at 3.3 µM was determined as 97.1%. In addition, at HIV-1 protease [2], the inhibition at 10 µM amounted to 102% and the inhibition at 30 µM turned out to be 105%.
